Measurements reported in PubChem BioAssay AID1963847 (Molecular Pharmacology Branch, DTP, NCI, 2024).

Test system: 415267-285-R-J2-PDC complex spheroid viability
Assay: Anticancer human tumor 415267-285-R-J2-PDC patient-derived breast carcinoma cell line growth inhibition [POLQ]
Details: for IC50: curve of first compound; for viability, T/C: stronger effect = lower value
Procedure, shortened: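 Three-cell-type spheroids modelling solid tumor plus stroma served as the readout system; POL inhibitors were tested individually and in combination, concentration ranges set by clinical Cmax where known.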

[1] = second compound 0.0316 µM, first compound 0.0316 µM
[2] = second compound 0.0316 µM, first compound 0.1 µM
[3] = second compound 0.0316 µM, first compound 0.316 µM
[4] = second compound 0.0316 µM, first compound 1 µM
[5] = second compound 0.0316 µM, first compound 3.16 µM
[6] = second compound 0.0316 µM, first compound 10 µM
[7] = second compound 0.1 µM, first compound 0.0316 µM
[8] = second compound 0.1 µM, first compound 0.1 µM
[9] = second compound 0.1 µM, first compound 0.316 µM
[10] = second compound 0.1 µM, first compound 1 µM
[11] = second compound 0.1 µM, first compound 3.16 µM
[12] = second compound 0.1 µM, first compound 10 µM
[13] = second compound 0.316 µM, first compound 0.0316 µM
[14] = second compound 0.316 µM, first compound 0.1 µM
[15] = second compound 0.316 µM, first compound 0.316 µM
[16] = second compound 0.316 µM, first compound 1 µM
[17] = second compound 0.316 µM, first compound 3.16 µM
[18] = second compound 0.316 µM, first compound 10 µM
[19] = second compound 1 µM, first compound 0.0316 µM
[20] = second compound 1 µM, first compound 0.1 µM
[21] = second compound 1 µM, first compound 0.316 µM
[22] = second compound 1 µM, first compound 1 µM
[23] = second compound 1 µM, first compound 3.16 µM
[24] = second compound 1 µM, first compound 10 µM
[25] = second compound 3.16 µM, first compound 0.0316 µM
[26] = second compound 3.16 µM, first compound 0.1 µM
[27] = second compound 3.16 µM, first compound 0.316 µM
[28] = second compound 3.16 µM, first compound 1 µM
[29] = second compound 3.16 µM, first compound 3.16 µM
[30] = second compound 3.16 µM, first compound 10 µM
[31] = second compound 10 µM, first compound 0.0316 µM
[32] = second compound 10 µM, first compound 0.1 µM
[33] = second compound 10 µM, first compound 0.316 µM
[34] = second compound 10 µM, first compound 1 µM
[35] = second compound 10 µM, first compound 3.16 µM
[36] = second compound 10 µM, first compound 10 µM
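Also: spheroids exposed to compounds for one week before readout.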
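For viability, T/C in this document: luminescence used as stand-in measure of viable cells; 100% = DMSO vehicle control viability.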

## C#Cc1c(F)ccc2cc(O)cc(-c3ncc4c(N5CC6CCC(C5)N6)nc(OCC56CCCN5CC(F)C6)nc4c3F)c12 (stereo not drawn) + Cc1cccc(N(C)C(=O)C2C(O)CCN2c2nc(C)cc(C(F)(F)F)c2C#N)c1
Second compound 0.0316 µM
  IC50: > 10 µM
Second compound 0.1 µM
  IC50: > 10 µM
Second compound 0.316 µM
  IC50: > 10 µM
Second compound 1 µM
  IC50: > 10 µM
Second compound 3.16 µM
  IC50: > 10 µM
Second compound 10 µM
  IC50: > 10 µM
[1]
  viability, T/C: 96.9%
[2]
  viability, T/C: 95.5%
[3]
  viability, T/C: 104%
[4]
  viability, T/C: 104%
[5]
  viability, T/C: 111%
[6]
  viability, T/C: 101%
[7]
  viability, T/C: 91.2%
[8]
  viability, T/C: 99.8%
[9]
  viability, T/C: 91%
[10]
  viability, T/C: 99.8%
[11]
  viability, T/C: 104%
[12]
  viability, T/C: 102%
[13]
  viability, T/C: 112%
[14]
  viability, T/C: 102%
[15]
  viability, T/C: 100%
[16]
  viability, T/C: 115%
[17]
  viability, T/C: 113%
[18]
  viability, T/C: 104%
[19]
  viability, T/C: 101%
[20]
  viability, T/C: 106%
[21]
  viability, T/C: 92.9%
[22]
  viability, T/C: 117%
[23]
  viability, T/C: 106%
[24]
  viability, T/C: 109%
[25]
  viability, T/C: 113%
[26]
  viability, T/C: 98.8%
[27]
  viability, T/C: 104%
[28]
  viability, T/C: 115%
[29]
  viability, T/C: 91.3%
[30]
  viability, T/C: 98.7%
[31]
  viability, T/C: 105%
[32]
  viability, T/C: 95.4%
[33]
  viability, T/C: 95.6%
[34]
  viability, T/C: 98%
[35]
  viability, T/C: 101%
[36]
  viability, T/C: 98.4%

## CC1COCCN1c1cc(C2(O)CC3CCC(C2)O3)c2cnn(-c3ccn[nH]3)c2n1 (stereo not drawn) + Cc1cccc(N(C)C(=O)C2C(O)CCN2c2nc(C)cc(C(F)(F)F)c2C#N)c1
Second compound 0.0316 µM
  IC50: < 0.0316 µM
Second compound 0.1 µM
  IC50: < 0.0316 µM
Second compound 0.316 µM
  IC50: < 0.0316 µM
Second compound 1 µM
  IC50: < 0.0316 µM
Second compound 3.16 µM
  IC50: < 0.0316 µM
Second compound 10 µM
  IC50: < 0.0316 µM
[1]
  viability, T/C: 18.2%
[2]
  viability, T/C: 7.78%
[3]
  viability, T/C: 5.17%
[4]
  viability, T/C: 4.79%
[5]
  viability, T/C: 4.69%
[6]
  viability, T/C: 4.06%
[7]
  viability, T/C: 17.1%
[8]
  viability, T/C: 6.52%
[9]
  viability, T/C: 4.78%
[10]
  viability, T/C: 4.34%
[11]
  viability, T/C: 5.05%
[12]
  viability, T/C: 5.28%
[13]
  viability, T/C: 17.9%
[14]
  viability, T/C: 5.44%
[15]
  viability, T/C: 5.64%
[16]
  viability, T/C: 4.91%
[17]
  viability, T/C: 4.67%
[18]
  viability, T/C: 4.41%
[19]
  viability, T/C: 24.7%
[20]
  viability, T/C: 6.22%
[21]
  viability, T/C: 4.58%
[22]
  viability, T/C: 4.12%
[23]
  viability, T/C: 4.85%
[24]
  viability, T/C: 5.19%
[25]
  viability, T/C: 20.4%
[26]
  viability, T/C: 6.14%
[27]
  viability, T/C: 5.01%
[28]
  viability, T/C: 4.84%
[29]
  viability, T/C: 4.41%
[30]
  viability, T/C: 4.56%
[31]
  viability, T/C: 21.4%
[32]
  viability, T/C: 6.79%
[33]
  viability, T/C: 5.41%
[34]
  viability, T/C: 5.44%
[35]
  viability, T/C: 4.9%
[36]
  viability, T/C: 4.36%

## COc1cc2cc(C(=O)CCC(=O)O)sc2cc1OC + Cc1cccc(N(C)C(=O)C2C(O)CCN2c2nc(C)cc(C(F)(F)F)c2C#N)c1
Second compound 0.0316 µM
  IC50: > 10 µM
Second compound 0.1 µM
  IC50: > 10 µM
Second compound 0.316 µM
  IC50: > 10 µM
Second compound 1 µM
  IC50: > 10 µM
Second compound 3.16 µM
  IC50: > 10 µM
Second compound 10 µM
  IC50: > 10 µM
[1]
  viability, T/C: 101%
[2]
  viability, T/C: 103%
[3]
  viability, T/C: 101%
[4]
  viability, T/C: 104%
[5]
  viability, T/C: 116%
[6]
  viability, T/C: 99%
[7]
  viability, T/C: 103%
[8]
  viability, T/C: 98.7%
[9]
  viability, T/C: 98.7%
[10]
  viability, T/C: 102%
[11]
  viability, T/C: 100%
[12]
  viability, T/C: 101%
[13]
  viability, T/C: 99.7%
[14]
  viability, T/C: 107%
[15]
  viability, T/C: 101%
[16]
  viability, T/C: 104%
[17]
  viability, T/C: 91.5%
[18]
  viability, T/C: 109%
[19]
  viability, T/C: 111%
[20]
  viability, T/C: 101%
[21]
  viability, T/C: 95.3%
[22]
  viability, T/C: 103%
[23]
  viability, T/C: 100%
[24]
  viability, T/C: 100%
[25]
  viability, T/C: 110%
[26]
  viability, T/C: 112%
[27]
  viability, T/C: 99.1%
[28]
  viability, T/C: 102%
[29]
  viability, T/C: 97.3%
[30]
  viability, T/C: 115%
[31]
  viability, T/C: 98.8%
[32]
  viability, T/C: 112%
[33]
  viability, T/C: 109%
[34]
  viability, T/C: 105%
[35]
  viability, T/C: 103%
[36]
  viability, T/C: 109%

## O=C(Nc1ccc(O)c(NS(=O)(=O)c2ccc(F)cc2)c1)c1ccc(-c2ccccc2)cc1 + Cc1cccc(N(C)C(=O)C2C(O)CCN2c2nc(C)cc(C(F)(F)F)c2C#N)c1
Second compound 0.0316 µM
  IC50: > 10 µM
Second compound 0.1 µM
  IC50: > 10 µM
Second compound 0.316 µM
  IC50: > 10 µM
Second compound 1 µM
  IC50: > 10 µM
Second compound 3.16 µM
  IC50: > 10 µM
Second compound 10 µM
  IC50: > 10 µM
[1]
  viability, T/C: 112%
[2]
  viability, T/C: 120%
[3]
  viability, T/C: 105%
[4]
  viability, T/C: 106%
[5]
  viability, T/C: 101%
[6]
  viability, T/C: 63.4%
[7]
  viability, T/C: 98.5%
[8]
  viability, T/C: 101%
[9]
  viability, T/C: 100%
[10]
  viability, T/C: 104%
[11]
  viability, T/C: 100%
[12]
  viability, T/C: 62.7%
[13]
  viability, T/C: 109%
[14]
  viability, T/C: 94.3%
[15]
  viability, T/C: 93.3%
[16]
  viability, T/C: 101%
[17]
  viability, T/C: 102%
[18]
  viability, T/C: 66.9%
[19]
  viability, T/C: 115%
[20]
  viability, T/C: 95.5%
[21]
  viability, T/C: 109%
[22]
  viability, T/C: 103%
[23]
  viability, T/C: 103%
[24]
  viability, T/C: 63.3%
[25]
  viability, T/C: 99.2%
[26]
  viability, T/C: 106%
[27]
  viability, T/C: 113%
[28]
  viability, T/C: 99.3%
[29]
  viability, T/C: 94.2%
[30]
  viability, T/C: 71.6%
[31]
  viability, T/C: 98.1%
[32]
  viability, T/C: 106%
[33]
  viability, T/C: 114%
[34]
  viability, T/C: 106%
[35]
  viability, T/C: 95.3%
[36]
  viability, T/C: 61.7%
